According to the supplement of paper PMC10307832:

Legend:
Assay in all cases: relative viability (nuclei count vs DMSO), 5 days (fraction); higher = more cells survive
MIM1 = compound: CC1=CSC(=NC2CCCCC2)N1/N=C/C3=C(C(=C(C=C3)O)O)O [MIM1]
Method in brief: (§1)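 Lung cancer cell lines received five library-drug doses (not always all listed) spaced by √10, pinned on vehicle-anchored 1536-well plates after an overnight stay at 37 °C. Five days later, with no medium change, nuclei were Hoechst-stained, imaged at 4× and counted with MetaXpress. Viability is treated-well nuclei relative to vehicle-well nuclei, as a median across plates. Passing plates had control CV below 25% and at least one doubling.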

Luminespib = compound: CCNC(=O)c1noc(-c2cc(C(C)C)c(O)cc2O)c1-c1ccc(CN2CCOCC2)cc1 [Luminespib]
Method in brief: as §1

Saracatinib = compound: CN1CCN(CCOc2cc(OC3CCOCC3)c3c(Nc4c(Cl)ccc5c4OCO5)ncnc3c2)CC1 [Saracatinib]
Method in brief: as §1

Nilotinib = compound: Cc1cn(-c2cc(NC(=O)c3ccc(C)c(Nc4nccc(-c5cccnc5)n4)c3)cc(C(F)(F)F)c2)cn1 [Nilotinib]
Method in brief: as §1

Lenalidomide = compound: Nc1cccc2c1CN(C1CCC(=O)NC1=O)C2=O [Lenalidomide]
Method in brief: as §1

| Cell Line | relative viability (MIM1; 0.2 µM) | relative viability (MIM1; 0.6325 µM) | relative viability (MIM1; 2 µM) | relative viability (MIM1; 6.325 µM) | relative viability (MIM1; 20 µM) | relative viability (Luminespib; 0.002 µM) | relative viability (Luminespib; 0.006325 µM) | relative viability (Luminespib; 0.01 µM, anchor plate) | relative viability (Luminespib; 0.02 µM) | relative viability (Luminespib; 0.06325 µM) | relative viability (Luminespib; 0.2 µM) | relative viability (Saracatinib; 0.02 µM) | relative viability (Saracatinib; 0.2 µM) | relative viability (Saracatinib; 0.6325 µM) | relative viability (Saracatinib; 2 µM) | relative viability (Nilotinib; 0.001 µM) | relative viability (Nilotinib; 0.003162 µM) | relative viability (Nilotinib; 0.01 µM) | relative viability (Nilotinib; 0.03162 µM) | relative viability (Nilotinib; 0.1 µM) | relative viability (Lenalidomide; 0.253 µM) | relative viability (Lenalidomide; 2.53 µM) | relative viability (Lenalidomide; 8 µM) | relative viability (Lenalidomide; 0.8 µM) |
| --- | --- | --- | --- | --- | --- | --- | --- | --- | --- | --- | --- | --- | --- | --- | --- | --- | --- | --- | --- | --- | --- | --- | --- | --- |
| HARA | 0.903 | 0.961 | 0.998 | 0.365 | 0.225 | 0.862 | 0.784 | 0.834 | 0.878 | 0.783 | 0.131 | 0.979 | 0.852 | 1.14 | 0.561 | 0.983 | 0.981 | 0.948 | 0.647 | 0.569 | 1.11 | 1.13 | 1.05 | – |
| LK-2 | 1.01 | 1.04 | 0.858 | 0.957 | 0.262 | 1.03 | 1.02 | 0.204 | 0.556 | 0.258 | 0.154 | 0.925 | 0.823 | 0.788 | 0.484 | 0.89 | 0.903 | 1.08 | 0.729 | 0.875 | 0.985 | 1.14 | 0.906 | 0.956 |
| NCI-H441 | 1.04 | 0.754 | 0.994 | 0.492 | 0.207 | 0.93 | 1.01 | 0.345 | 0.926 | 0.133 | 0.129 | 0.99 | 0.896 | 1.23 | 0.884 | 0.927 | 1.4 | 1.21 | 0.724 | 0.938 | 0.967 | 1.21 | 0.808 | 0.869 |
| SK-LU-1 | 1.05 | 1.08 | 1.12 | 0.934 | 0.617 | 1.09 | 0.777 | 0.202 | 0.644 | 0.186 | 0.192 | 1.03 | 0.802 | 0.707 | 0.53 | 0.932 | 0.927 | 1.24 | 0.718 | 0.894 | 0.963 | 1.23 | 0.903 | 1.03 |
| NCI-H1651 | 0.983 | 0.959 | 0.932 | 0.896 | 0.799 | 0.979 | 0.934 | 0.86 | 0.818 | 0.738 | 0.351 | 1 | 0.887 | 1.07 | 0.937 | 0.94 | 1.09 | 1.14 | 0.905 | 0.676 | 0.972 | 1.14 | 0.904 | 0.984 |
| NCI-H1792 | 0.966 | 0.79 | 0.728 | 0.76 | 0.659 | 0.926 | 0.71 | 0.52 | 0.348 | 0.167 | 0.107 | 1.09 | 0.726 | 1.03 | 0.776 | 0.706 | 0.817 | 1.07 | – | 0.831 | 1.09 | 1.35 | 0.419 | 0.715 |
| HCC-78 | 1.07 | 0.549 | 0.888 | 0.677 | 0.424 | 0.869 | 0.72 | – | – | 0.999 | 0.4 | 0.956 | 0.815 | 1.08 | 0.834 | 1.06 | 0.937 | 1.07 | 0.84 | 0.746 | 0.885 | 0.957 | 0.618 | 0.861 |
